{"source": "patent US5849263A", "about": "“Pharmaceutical compositions containing alkylaryl polyether alcohol polymer” (priority 1996, dated 1998)", "origin": "cited, not measured here", "details": "in vivo"}
{"smiles": "CCCCCCCCCCCCCCCC(=O)OCC(COP(=O)([O-])OCC[N+](C)(C)C)OC(=O)CCCCCCCCCCCCCCC", "note": "(stereo not shown) [DPPC, diphalmitoylphosphatidyl choine]", "values": [{"measurement": "undesired features / side effects of formulation", "value": "mucus plugging of the airways and obstruction of ventilator circuits"}]}
